Starred links: 1 amine or outer side, 2 acyl side, 3 side chain; linkers in the order of their positions; H or OH if unused. Positions of bridges follow the written chain, without caps; N, C: chain ends. Non-standard residues stand in square brackets, D forms with d. Residues, ends and D or L forms follow the SMILES beside them. *: point of attachment. Me3N+(CH2)2O(CH2)2O(CH2)2CO = C[N+](C)(C)CCOCCOCCC(=O)*; CH2CH2OCH2CH2OCH2CH2NMe3+ = C[N+](C)(C)CCOCCOCC*; Trp(7-Me) = Cc1cccc2c(C[C@H](N)C(=O)O)c[nH]c12; Decanoyl(3,6,9-trioxa) = COCCOCCOCC(=O)*; CH2CH2OCH2CH2NMe3+ = C[N+](C)(C)CCOCC*; X60 = CCCCCCCC[N+](C)(C)CCc1cn(CC*)nn1; 2Nal = N[C@@H](Cc1ccc2ccccc2c1)C(=O)O; AEF = NCCOc1ccc(C[C@H](N)C(=O)O)cc1; X24 = C[N+](C)(CCN[*:1])CC(=O)[*:2]; 3Pal = N[C@@H](Cc1cccnc1)C(=O)O; Lys(Me) = CNCCCC[C@H](N)C(=O)O; Pen = CC(C)(S)[C@H](N)C(=O)O; X49 = O=C(CCCCCCCC*)N1CCCCC1; X52 = C[N+](C)(C)CCOCCNCC*; Thp = NC1(C(=O)O)CCOCC1; X12 = C[N+](C)(C)CCC*; Sar = CNCC(=O)O
How the values were obtained:
[1] = molecular target: T1, IL-23R (Homo sapiens, UniProt Q5VWK5); assay: IL23R Reporter Assay; type: cell-based; settings: HEK293 cells containing IL-23R, IL-12RP1 and STAT-inducible firefly luciferase reporter; 10 ng/mL IL-23 (EC90); 5 h at 37° C.; read-out: IL23R Reporter Assay
T1 construct: host or cells: HEK293
T1 sequence (Q5VWK5 24-629): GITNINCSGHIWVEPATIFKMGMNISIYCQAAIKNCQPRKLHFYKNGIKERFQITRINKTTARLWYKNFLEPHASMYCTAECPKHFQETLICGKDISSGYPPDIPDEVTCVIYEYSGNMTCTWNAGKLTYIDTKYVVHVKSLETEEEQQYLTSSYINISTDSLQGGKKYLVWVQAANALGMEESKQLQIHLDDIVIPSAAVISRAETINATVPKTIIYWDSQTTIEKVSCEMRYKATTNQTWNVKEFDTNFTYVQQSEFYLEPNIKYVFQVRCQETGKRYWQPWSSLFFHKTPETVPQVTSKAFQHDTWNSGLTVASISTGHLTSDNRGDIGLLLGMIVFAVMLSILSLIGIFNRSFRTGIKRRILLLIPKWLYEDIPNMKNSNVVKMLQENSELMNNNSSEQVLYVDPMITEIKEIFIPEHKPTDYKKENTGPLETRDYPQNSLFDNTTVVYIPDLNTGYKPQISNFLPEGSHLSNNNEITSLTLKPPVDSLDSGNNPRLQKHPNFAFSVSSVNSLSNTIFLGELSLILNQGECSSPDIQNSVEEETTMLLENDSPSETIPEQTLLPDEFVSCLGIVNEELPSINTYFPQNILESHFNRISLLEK

[2] = Exposed Polar Surface Area (EPSA); type: physicochemical; settings: SFC on Chirex 3014 column; sample 1 mM DMSO stock; read-out: EPSA
Summary of the method: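 Polarity measured by SFC on a Chirex 3014 column (35 °C, 4 mL/min) with methanol/ammonium formate in CO2 as gradient eluent. Retention times were normalised to EPSA (Å^2) against eight reference compounds.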

Structure (SMILES) | IC50 [1] | EPSA [2]
COCCOCCOCC(=O)NCC[N+](C)(C)CC(=O)N[C@@H]1C(=O)N[C@@H](CC(=O)N(C)C)C(=O)N[C@@H]([C@@H](C)O)C(=O)N[C@@H](Cc2c[nH]c3c(C)cccc23)C(=O)N[C@@H](CCCCN(C)C(C)=O)C(=O)N[C@H](C(=O)N[C@@H](Cc2ccc(OCCOCCOCC[N+](C)(C)C)cc2)C(=O)N[C@@H](Cc2ccc3ccccc3c2)C(=O)NC2(C(=O)N[C@@H](CCCCN(C)C(C)=O)C(=O)N[C@@H](CC(N)=O)C(=O)N[C@@H](Cc3cccnc3)C(=O)N(C)CC(=O)N(C)C)CCOCC2)C(C)(C)SSC1(C)C [compound 225, mPEG3CO-SP6-Pen(3)-N(N(Me)2)-T-7MeW-K(NMeAc)-Pen(3)-APEG3F-2Nal-THP-K(NMeAc)-N-3Pya-Sar-CON(Me)2] ({Decanoyl(3,6,9-trioxa)}-[X24][Pen]D(NMe2)T[Trp(7-Me)][Lys(Me)](Ac)[Pen]Y(CH2CH2OCH2CH2OCH2CH2NMe3+)[2Nal][Thp][Lys(Me)](Ac)N[3Pal][Sar]-NMe2; disulfide 2-7) | 4.1 nM | 136 A^2
CC(=O)N[C@H](COCCOCC[N+](C)(C)C)C(=O)N[C@@H]1C(=O)N[C@@H](CC(=O)N(C)C)C(=O)N[C@@H]([C@@H](C)O)C(=O)N[C@@H](Cc2c[nH]c3c(C)cccc23)C(=O)N[C@@H](CCCCN(C)C(C)=O)C(=O)N[C@H](C(=O)N[C@@H](Cc2ccc(OCCOCCOCC[N+](C)(C)C)cc2)C(=O)N[C@@H](Cc2ccc3ccccc3c2)C(=O)NC2(C(=O)N[C@@H](CCCCN(C)C(C)=O)C(=O)N[C@@H](CC(N)=O)C(=O)N[C@@H](Cc3cccnc3)C(=O)N(C)CC(=O)N(C)C)CCOCC2)C(C)(C)SSC1(C)C [compound 232, MeCO-APEG2ser-Pen(3)-N(N(Me)2)-T-7MeW-K(NMeAc)-Pen(3)-APEG3F-2Nal-THP-K(NMeAc)-N-3Pya-Sar-CON(Me)2] | 3.4 nM | 140 A^2
CC(=O)N(C)CCCC[C@@H]1NC(=O)[C@H](Cc2c[nH]c3c(C)cccc23)NC(=O)[C@H]([C@@H](C)O)NC(=O)[C@H](CC(=O)N(C)C)NC(=O)[C@@H](NC(=O)CCOCCOCC[N+](C)(C)C)C(C)(C)SSC(C)(C)[C@@H](C(=O)N[C@@H](Cc2ccc(OCCCCCCCCC(=O)N3CCCCC3)cc2)C(=O)N[C@@H](Cc2ccc3ccccc3c2)C(=O)NC2(C(=O)N[C@@H](CCCCN(C)C(C)=O)C(=O)N[C@@H](CC(N)=O)C(=O)N[C@@H](Cc3cccnc3)C(=O)N(C)CC(=O)N(C)C)CCOCC2)NC1=O [compound 242, cPEG3aCO-Pen(3)-N(N(Me)2)-T-7MeW-K(NMeAc)-Pen(3)-YC8COPip-2Nal-THP-K(NMeAc)-N-3Pya-Sar-CON(Me)2] ({Me3N+(CH2)2O(CH2)2O(CH2)2CO}-[Pen]D(NMe2)T[Trp(7-Me)][Lys(Me)](Ac)[Pen]Y(X49)[2Nal][Thp][Lys(Me)](Ac)N[3Pal][Sar]-NMe2; disulfide 1-6) | 25 nM | 145 A^2
CCCCCCCC[N+](C)(C)CCc1cn(CCOc2ccc(C[C@H](NC(=O)[C@H]3NC(=O)[C@H](CCCCNC(C)=O)NC(=O)[C@H](Cc4c[nH]c5c(C)cccc45)NC(=O)[C@H]([C@@H](C)O)NC(=O)[C@H](CC(N)=O)NC(=O)[C@@H](NC(C)=O)C(C)(C)SSC3(C)C)C(=O)N[C@@H](Cc3ccc4ccccc4c3)C(=O)NC3(C(=O)N[C@@H](CCCCNC(C)=O)C(=O)N[C@@H](CC(N)=O)C(=O)N[C@@H](Cc4cccnc4)C(=O)N(C)CC(N)=O)CCOCC3)cc2)nn1 [compound 250] (Ac-[Pen]NT[Trp(7-Me)]K(Ac)[Pen]Y(X60)[2Nal][Thp]K(Ac)N[3Pal][Sar]-NH2; disulfide 1-6 (inferred)) | 6.9 nM | 146 A^2

The next lines start with the values.

IC50 [1] | EPSA [2] | Structure (SMILES)
19 nM | 145 A^2 | CC(=O)N(C)CCCC[C@@H]1NC(=O)[C@H](Cc2c[nH]c3c(C)cccc23)NC(=O)[C@H]([C@@H](C)O)NC(=O)[C@H](CC(=O)N(C)C)NC(=O)[C@@H](NC(=O)CCOCCOCC[N+](C)(C)C)C(C)(C)SSC(C)(C)[C@@H](C(=O)N[C@@H](Cc2ccc(OCCC[N+](C)(C)C)cc2)C(=O)N[C@@H](Cc2ccc3ccccc3c2)C(=O)NC2(C(=O)N[C@@H](CCCCN(C)C(C)=O)C(=O)N[C@@H](CC(N)=O)C(=O)N[C@@H](Cc3cccnc3)C(=O)N(C)CC(=O)N(C)C)CCOCC2)NC1=O [compound 229, cPEG3aCO-Pen(3)-N(N(Me)2)-T-7MeW-K(NMeAc)-Pen(3)-TMA3F-2Nal-THP-K(NMeAc)-N-3Pya-Sar-CON(Me)2] ({Me3N+(CH2)2O(CH2)2O(CH2)2CO}-[Pen]D(NMe2)T[Trp(7-Me)][Lys(Me)](Ac)[Pen]Y(X12)[2Nal][Thp][Lys(Me)](Ac)N[3Pal][Sar]-NMe2; disulfide 1-6)
3 nM | 141 A^2 | CC(=O)NCCCC[C@H](NC(=O)C1(NC(=O)[C@H](Cc2ccc3ccccc3c2)NC(=O)[C@H](Cc2ccc(OCCOCCOCC[N+](C)(C)C)cc2)NC(=O)[C@H]2NC(=O)[C@H](CCCCN(C)C(C)=O)NC(=O)[C@H](Cc3c[nH]c4c(C)cccc34)NC(=O)[C@H]([C@@H](C)O)NC(=O)[C@H](CC(=O)N(C)C)NC(=O)[C@@H](NC(=O)CCOCCOCC[N+](C)(C)C)C(C)(C)SSC2(C)C)CCOCC1)C(=O)N[C@@H](CC(N)=O)C(=O)N[C@@H](Cc1cccnc1)C(=O)N(C)CC(=O)N(C)C [compound 233, cPEG3aCO-Pen(3)-N(N(Me)2)-T-7MeW-K(NMeAc)-Pen(3)-APEG3F-2Nal-THP-K(Ac)-N-3Pya-Sar-CON(Me)2] ({Me3N+(CH2)2O(CH2)2O(CH2)2CO}-[Pen]D(NMe2)T[Trp(7-Me)][Lys(Me)](Ac)[Pen]Y(CH2CH2OCH2CH2OCH2CH2NMe3+)[2Nal][Thp]K(Ac)N[3Pal][Sar]-NMe2; disulfide 1-6)
3.5 nM | 145 A^2 | CC(=O)N(C)CCCC[C@@H]1NC(=O)[C@H](Cc2c[nH]c3c(C)cccc23)NC(=O)[C@H]([C@@H](C)O)NC(=O)[C@H](CC(=O)N(C)C)NC(=O)[C@@H](NC(=O)CCOCCOCC[N+](C)(C)C)C(C)(C)SSC(C)(C)[C@@H](C(=O)N[C@@H](Cc2ccc(OCCNCCOCC[N+](C)(C)C)cc2)C(=O)N[C@@H](Cc2ccc3ccccc3c2)C(=O)NC2(C(=O)N[C@@H](CCCCN(C)C(C)=O)C(=O)N[C@@H](CC(N)=O)C(=O)N[C@@H](Cc3cccnc3)C(=O)N(C)CC(=O)N(C)C)CCOCC2)NC1=O [compound 238, cPEG3aCO-Pen(3)-N(N(Me)2)-T-7MeW-K(NMeAc)-Pen(3)-AEF(PEG2a)-2Nal-THP-K(NMeAc)-N-3Pya-Sar-CON(Me)2] ({Me3N+(CH2)2O(CH2)2O(CH2)2CO}-[Pen]D(NMe2)T[Trp(7-Me)][Lys(Me)](Ac)[Pen]Y(X52)[2Nal][Thp][Lys(Me)](Ac)N[3Pal][Sar]-NMe2; disulfide 1-6)
42 nM | 148 A^2 | CC(=O)N(C)CCCC[C@H](NC(=O)C1(NC(=O)[C@H](Cc2ccc3ccccc3c2)NC(=O)[C@H](Cc2ccc(OCCN)cc2)NC(=O)[C@H]2NC(=O)[C@H](COCCOCC[N+](C)(C)C)NC(=O)[C@H](Cc3c[nH]c4c(C)cccc34)NC(=O)[C@H]([C@@H](C)O)NC(=O)[C@H](CC(=O)N(C)C)NC(=O)[C@@H](NC(=O)CCOCCOCC[N+](C)(C)C)C(C)(C)SSC2(C)C)CCOCC1)C(=O)N[C@@H](CC(N)=O)C(=O)N[C@@H](Cc1cccnc1)C(=O)N(C)CC(=O)N(C)C [compound 245, cPEG3aCO-Pen(3)-N(N(Me)2)-T-7MeW-APEG2Ser-Pen(3)-AEF-2Nal-THP-K(NMeAc)-N-3Pya-Sar-CON(Me)2] ({Me3N+(CH2)2O(CH2)2O(CH2)2CO}-[Pen]D(NMe2)T[Trp(7-Me)]S(CH2CH2OCH2CH2NMe3+)[Pen][AEF][2Nal][Thp][Lys(Me)](Ac)N[3Pal][Sar]-NMe2; disulfide 1-6)
